Tests used:
[1] = system: DEN-induced liver fibrosis/cirrhosis; test: DEN-induced rat model: fibrosis/cirrhosis by Ishak score of Masson's trichrome stained liver sections; type: in vivo, male Wistar rats; conditions: for mode of Ishak score: vehicle mode 6; for range of Ishak score: vehicle range 2-6
Procedure: FIG. 2A is a bar graph depicting the Ishak score of male Wistar rats receiving weekly intraperitoneal injections of DEN (50 mg/kg) for 18 weeks and vehicle only (n=16), 0.5 mg/kg erlotinib (Erl 0.5; n=8), or 2 mg/kg erlotinib (Erl 2; n=8) during weeks 12-18.
FIG. 6A is a bar graph depicting the Ishak score of male Wistar rats receiving weekly intraperitoneal injections of DEN (50 mg/kg) for 18 weeks and vehicle only (n=8) or 18 mg/kg lapatinib (n=8) during weeks 12-18. *, significant.
Erlotinib is a drug used to treat non-small cell lung cancer and pancreatic cancer. Erlotinib specifically targets the EGFR, which is highly expressed and occasionally mutated in various forms of cancer, by binding to the adenosine triphosphate (ATP) binding site of the receptor (Raymond et al., Drugs 60 Suppl 1:15-23, 2000). To investigate erlotinib as a chemoprevention strategy for liver fibrogenesis, male Wistar rats were given a weekly intraperitoneal injection of 50 mg/kg DEN to induce cirrhosis and HCC (Lee et al., Korean J Hepatol 13:70-80, 2007). Erlotinib was administered by intraperitoneal injection daily (5× a week) during weeks 12-18 at a dose of 2 mg/kg, which is equivalent to chemotherapeutic dosing regimens in humans. […] In a separate study, the dose of erlotinib was lowered to 0.5 mg/kg.
(§1) Repeated injury to the liver causes damage to hepatocytes and activates resident macrophages called Kupffer cells. Damaged hepatocytes and activated Kupffer cells secrete cytokines and growth factors into the liver milieu, which activate hepatic stellate cells (Friedman, Gastroenterology 134:1655-69, 2008). Normally, hepatic stellate cells are quiescent and store vitamin A and fat. Upon activation, they differentiate into a myofibroblast-phenotype and express α-smooth muscle actin (α-SMA) (Friedman, Gastroenterology 134:1655-69, 2008). Activated hepatic stellate cells deposit fibrous collagen into the space of Disse acutely causing fibrosis and chronically causing cirrhosis. The degree of liver disease (fibrosis versus cirrhosis) is pathologically assessed through trichrome staining of collagen by the method of Ishak (Mod Pathol 7:690-713, 1994).
In early stages of liver fibrosis, collagen deposition is localized around the portal tracts (Ishak score 1 or 2), but it bridges between portal tracts at later stages of fibrosis (Ishak score 3 or 4) and ultimately forms nodules around regenerating hepatocytes during cirrhosis (Ishak score 5 or 6). Although there is some heterogeneity in this model, intraperitoneal administration of DEN causes, on average, an Ishak score 0.8 (range 0-2) fibrosis after 8 weeks, an Ishak score 4.1 (range 3-6) fibrosis/cirrhosis after 12 weeks, and an Ishak score 5.1 (range 4-6) cirrhosis after 18 weeks. Consistent with this, hepatic stellate cell activation increases over time after DEN administration as assessed by α-SMA staining.
Remarkably, erlotinib inhibited fibrogenesis. […] The range for 16 vehicle animals was 2-6 with a mode of 6 as illustrated in FIG. 2B. […] To further examine the effects of erlotinib on liver fibrosis, α-SMA staining was performed for activated hepatic stellate cells.
To investigate lapatinib as a chemoprevention strategy for liver fibrogenesis, male Wistar rats were given a weekly intraperitoneal injection of 50 mg/kg DEN to induce cirrhosis and HCC (Lee et al., Korean J Hepatol 13:70-80, 2007). Lapatinib was administered by intraperitoneal injection daily (5× a week) during weeks 12-18 at a dose of 18 mg/kg.
Similar to erlotinib, lapatinib inhibited fibrogenesis. […] To further examine the effects of lapatinib on liver fibrosis, α-SMA staining was performed for activated hepatic stellate cells.

[2] = system: activated hepatic stellate cells; test: α-SMA staining of liver sections for activated hepatic stellate cells in DEN-treated rats; type: in vivo, male Wistar rats
Procedure: FIGS. 2B-2G are a series of six panels showing representative pictures of Masson's trichome (B-D) and α-SMA stains (E-G) of liver sections from rats receiving weekly intraperitoneal injections of DEN (50 mg/kg) for 18 weeks and (B and E) vehicle only, (C and F) 0.5 mg/kg erlotinib (Erl 0.5), or (D and G) 2 mg/kg erlotinib (Erl 2) during weeks 12-18.
FIGS. 6B-6E are a series of four panels showing representative pictures of Masson's trichrome (B-C) and α-SMA stains (D-E) of liver sections from rats receiving weekly intraperitoneal injections of DEN (50 mg/kg) for 18 weeks and (B and D) vehicle only or (C and E) 18 mg/kg lapatinib during weeks 12-18.
as §1, with “Activated hepatic stellate cells deposit fibrous collagen into the space of Disse acutely causing fibrosis and chronically causing cirrhosis.” left out, “1994). […]” for “1994).”

C#Cc1cccc(Nc2ncnc3cc(OCCOC)c(OCCOC)cc23)c1 [erlotinib, 4-Quinazolinamine, N-(3-ethynylphenyl)-6,7-bis(2-methoxyethoxy)]
average Ishak score ([1]; 0.5 mg/kg weeks 12-18, n=8, vehicle 4.9): 4.3 | mode of Ishak score ([1]; 0.5 mg/kg weeks 12-18): 4 | range of Ishak score ([1]; 0.5 mg/kg weeks 12-18): 3-6 | average Ishak score ([1]; 2 mg/kg weeks 12-18, n=8, vehicle 4.9): 2.6 | mode of Ishak score ([1]; 2 mg/kg weeks 12-18): 2 | range of Ishak score ([1]; 2 mg/kg weeks 12-18): 1-4 | activation of hepatic stellate cells (α-SMA staining) ([2]; 0.5 and 2 mg/kg weeks 12-18 vs vehicle): dramatically decreased the activation of hepatic stellate cells in a dose-dependent fashion

CS(=O)(=O)CCNCc1ccc(-c2ccc3ncnc(Nc4ccc(OCc5cccc(F)c5)c(Cl)c4)c3c2)o1 [lapatinib, 4-Quinazolinamine, N-(3-chloro-4-((3-fluorophenyl)methoxy)phenyl)-6-(5-(((2-(methylsulfonyl)ethyl)amino)methyl)-2-furanyl)]
average Ishak score ([1]; 18 mg/kg weeks 12-18, n=8, vehicle 5.6): 4.3 | activation of hepatic stellate cells (α-SMA staining) ([2]; 18 mg/kg weeks 12-18 vs vehicle): dramatically decreased the activation of hepatic stellate cells in a dose-dependent fashion
